Legend:
[1] = test system: graft vs. host disease (GVHD); assay: GVHD after BMT: lethally irradiated Balb/c mice given C57BL/6 bone marrow and treated splenocytes; assay type: in vivo, mouse
Protocol: To test this, Balb/c mice were lethally irradiated one day prior to BMT with C57BL/6 bone marrow. 48 Hours after BMT, mice received splenocytes treated with allogeneic stimulators, allogeneic stimulators and KU55933, or no stimulators and KU55933.

[2] = test system: ATM targets including p53, H2AX and NBS1; settings: cited from earlier work
[3] = test system: other PI-3 kinase-like kinase family members; settings: cited from earlier work
alloreactive T cells = assay: Cytokine production of alloreactive T cells stimulated with alloantigen; assay type: cell-based; settings: treated with ATM inhibiting agent in addition to alloantigen; preliminary data
C57BL/6 T cells [4] = assay: Stimulation of T cells with anti-CD3 and CD28 in the presence of KU-55933 (annexin-V/CFSE flow cytometry); assay type: cell-based, mouse
Protocol: Cells were then labeled for 20 minutes with 2 μM 5(6)-Carboxyfluorescein diacetate N-succinimidyl ester (CFSE, Sigma-Aldrich) in Hank's balanced salt solution (HBSS, Mediatech, Herndon, Va.). Cells were plated at a concentration of 2-5×10^6/ml in Dulbecco's modified eagle's medium (DMEM (Mediatech) supplemented with 15% heat-inactivated fetal calf serum (Sigma-Aldrich, St. Louis, Mo.), penicillin (100 U/ml), streptomycin (100 μg/ml), 2 mM L-glutamine, 10 mM Hepes, 0.1 mM nonessential amino acids, 1 mM sodium pyruvate (Mediatech) (complete DMEM). Cells were treated with 1 μg/ml anti-CD3 antibody (2C11 (30)) and 1 μg/ml anti-CD28 antibody (37.51, Gross, et al., J. Immunol. 149:380 (1992)). Cells were cultured at 37 C, 5% CO2 for the indicated time. For studies of Atm−/− T cell proliferation in response to mitogens, purified T cells were cultured with 2 μg/ml Concanavalin A or 10 ng/ml PMA and 1 μg/m ionomycin.
Stimulation of T cells in the Presence of KU-55933: T cells were purified from C57BL/6 mice (Jackson Laboratories) and re-suspended at 1.5×10^6 cells/ml in complete DMEM with 1 μg/10^6 cells anti-CD3 and CD28 and the indicated concentration of KU-55933 (KuDos Pharmaceuticals) or the same volume of DMSO (Sigma-Aldrich). Some cultures were in addition treated with 4 mM N-acetyl cysteine (Sigma-Aldrich).
Flow Cytometry: Cells were harvested, washed in HBSS and stained with Annexin-V phycoerythrin (BD Biosciences), or Annexin V-biotin (R&D Systems) in addition to streptavidin conjugated phycoerythrin according to the manufacturer's instructions. Cells were then stained with anti-CD4-APC (RM4-5, BD Biosciences) or anti-CD8-APC (53-6.7 BD Biosciences) and 7-actinomycin D (Sigma-Aldrich) or propidium iodide (Sigma-Aldrich). All analysis was performed using. FloJo software (TreeStar Inc).

C57BL/6 T cells [5] = assay: Stimulation of T cells with anti-CD3 and CD28 in the presence of caffeine (annexin-V/CFSE flow cytometry); assay type: cell-based, mouse
Protocol: Cells were then labeled for 20 minutes with 2 μM 5(6)-Carboxyfluorescein diacetate N-succinimidyl ester (CFSE, Sigma-Aldrich) in Hank's balanced salt solution (HBSS, Mediatech, Herndon, Va.). Cells were plated at a concentration of 2-5×10^6/ml in Dulbecco's modified eagle's medium (DMEM (Mediatech) supplemented with 15% heat-inactivated fetal calf serum (Sigma-Aldrich, St. […] Cells were treated with 1 μg/ml anti-CD3 antibody (2C11 (30)) and 1 μg/ml anti-CD28 antibody (37.51, Gross, et al., J. Immunol. 149:380 (1992)). […] For studies of Atm−/− T cell proliferation in response to mitogens, purified T cells were cultured with 2 μg/ml Concanavalin A or 10 ng/ml PMA and 1 μg/m ionomycin. Stimulation of T cells in the Presence of Caffeine: […] Some cultures were, in addition, treated with 2 mM N-acetyl cysteine (Sigma-Aldrich). Flow Cytometry: Cells were harvested, washed in HBSS and stained with Annexin-V phycoerythrin (BD Biosciences), or Annexin V-biotin (R&D Systems) in addition to streptavidin conjugated phycoerythrin according to the manufacturer's instructions. Cells were then stained with anti-CD4-APC (RM4-5, BD Biosciences) or anti-CD8-APC (53-6.7 BD Biosciences) and 7-actinomycin D (Sigma-Aldrich) or propidium iodide (Sigma-Aldrich). All analysis was performed using. FloJo software (TreeStar Inc).

Atm deficient T cells = assay: Stimulation of Atm deficient T cells with anti-CD3 and CD28 with or without NAC; assay type: cell-based, mouse; settings: 2 mM NAC
Description: Mice: Heterozygous 129S6/SvEvTac-Atm^tm1-Awb mice […] were purchased from the Jackson Laboratory (Bar Harbor, Me.). An independently generated Atm knockout mouse model was used to confirm our observations (Borghesani, et al., Proc. Nat'l Acad. Sci. USA 97:3336 (2000)). All mice were housed under microisolator conditions in autoclaved cages and were maintained on irradiated feed and autoclaved acidified drinking water. All sentinel mice housed in the same colony were free of viral antibodies. Four- to 6-week-old mice were used in all experiments.
Purification and Stimulation of T Cells: Splenocytes were harvested from 4-6 week old Atm−/− mice or wild-type littermates bred in our animal facility. In some experiments C57BL/6 mice were used as a source of wild-type T cells. Red blood cells were lysed using ACK lysing buffer (Cambrex, Walkerville, Md.) for 3 minutes at room temperature. In experiments in which T cells were purified, splenocytes were incubated with anti-CD4 (GK1.5, Dialynas, et al., J. Immunol. 131:2445 (1983)) and anti-CD8 (2.43, Sarmiento, et al., J. Immunol. 125:2665 (1980)) antibodies for 30 min at 4° C. Cells were then washed and incubated with magnetic beads conjugated to anti-rat IgG antibody, prior to positive selection by MACS according to the manufacturer's instructions (Miltenyi Biotech, USA Auburn Calif.). […]

ATM = ATM (Homo sapiens, UniProt Q13315); settings: cited from earlier work
ATR = ATR (Homo sapiens, UniProt Q13535); settings: 3 mM caffeine; cited from earlier work
[6] = C57BL/6 T cells stimulated with anti-CD3 and CD28

Sequence of ATM (Q13315 whole entry, species assumed): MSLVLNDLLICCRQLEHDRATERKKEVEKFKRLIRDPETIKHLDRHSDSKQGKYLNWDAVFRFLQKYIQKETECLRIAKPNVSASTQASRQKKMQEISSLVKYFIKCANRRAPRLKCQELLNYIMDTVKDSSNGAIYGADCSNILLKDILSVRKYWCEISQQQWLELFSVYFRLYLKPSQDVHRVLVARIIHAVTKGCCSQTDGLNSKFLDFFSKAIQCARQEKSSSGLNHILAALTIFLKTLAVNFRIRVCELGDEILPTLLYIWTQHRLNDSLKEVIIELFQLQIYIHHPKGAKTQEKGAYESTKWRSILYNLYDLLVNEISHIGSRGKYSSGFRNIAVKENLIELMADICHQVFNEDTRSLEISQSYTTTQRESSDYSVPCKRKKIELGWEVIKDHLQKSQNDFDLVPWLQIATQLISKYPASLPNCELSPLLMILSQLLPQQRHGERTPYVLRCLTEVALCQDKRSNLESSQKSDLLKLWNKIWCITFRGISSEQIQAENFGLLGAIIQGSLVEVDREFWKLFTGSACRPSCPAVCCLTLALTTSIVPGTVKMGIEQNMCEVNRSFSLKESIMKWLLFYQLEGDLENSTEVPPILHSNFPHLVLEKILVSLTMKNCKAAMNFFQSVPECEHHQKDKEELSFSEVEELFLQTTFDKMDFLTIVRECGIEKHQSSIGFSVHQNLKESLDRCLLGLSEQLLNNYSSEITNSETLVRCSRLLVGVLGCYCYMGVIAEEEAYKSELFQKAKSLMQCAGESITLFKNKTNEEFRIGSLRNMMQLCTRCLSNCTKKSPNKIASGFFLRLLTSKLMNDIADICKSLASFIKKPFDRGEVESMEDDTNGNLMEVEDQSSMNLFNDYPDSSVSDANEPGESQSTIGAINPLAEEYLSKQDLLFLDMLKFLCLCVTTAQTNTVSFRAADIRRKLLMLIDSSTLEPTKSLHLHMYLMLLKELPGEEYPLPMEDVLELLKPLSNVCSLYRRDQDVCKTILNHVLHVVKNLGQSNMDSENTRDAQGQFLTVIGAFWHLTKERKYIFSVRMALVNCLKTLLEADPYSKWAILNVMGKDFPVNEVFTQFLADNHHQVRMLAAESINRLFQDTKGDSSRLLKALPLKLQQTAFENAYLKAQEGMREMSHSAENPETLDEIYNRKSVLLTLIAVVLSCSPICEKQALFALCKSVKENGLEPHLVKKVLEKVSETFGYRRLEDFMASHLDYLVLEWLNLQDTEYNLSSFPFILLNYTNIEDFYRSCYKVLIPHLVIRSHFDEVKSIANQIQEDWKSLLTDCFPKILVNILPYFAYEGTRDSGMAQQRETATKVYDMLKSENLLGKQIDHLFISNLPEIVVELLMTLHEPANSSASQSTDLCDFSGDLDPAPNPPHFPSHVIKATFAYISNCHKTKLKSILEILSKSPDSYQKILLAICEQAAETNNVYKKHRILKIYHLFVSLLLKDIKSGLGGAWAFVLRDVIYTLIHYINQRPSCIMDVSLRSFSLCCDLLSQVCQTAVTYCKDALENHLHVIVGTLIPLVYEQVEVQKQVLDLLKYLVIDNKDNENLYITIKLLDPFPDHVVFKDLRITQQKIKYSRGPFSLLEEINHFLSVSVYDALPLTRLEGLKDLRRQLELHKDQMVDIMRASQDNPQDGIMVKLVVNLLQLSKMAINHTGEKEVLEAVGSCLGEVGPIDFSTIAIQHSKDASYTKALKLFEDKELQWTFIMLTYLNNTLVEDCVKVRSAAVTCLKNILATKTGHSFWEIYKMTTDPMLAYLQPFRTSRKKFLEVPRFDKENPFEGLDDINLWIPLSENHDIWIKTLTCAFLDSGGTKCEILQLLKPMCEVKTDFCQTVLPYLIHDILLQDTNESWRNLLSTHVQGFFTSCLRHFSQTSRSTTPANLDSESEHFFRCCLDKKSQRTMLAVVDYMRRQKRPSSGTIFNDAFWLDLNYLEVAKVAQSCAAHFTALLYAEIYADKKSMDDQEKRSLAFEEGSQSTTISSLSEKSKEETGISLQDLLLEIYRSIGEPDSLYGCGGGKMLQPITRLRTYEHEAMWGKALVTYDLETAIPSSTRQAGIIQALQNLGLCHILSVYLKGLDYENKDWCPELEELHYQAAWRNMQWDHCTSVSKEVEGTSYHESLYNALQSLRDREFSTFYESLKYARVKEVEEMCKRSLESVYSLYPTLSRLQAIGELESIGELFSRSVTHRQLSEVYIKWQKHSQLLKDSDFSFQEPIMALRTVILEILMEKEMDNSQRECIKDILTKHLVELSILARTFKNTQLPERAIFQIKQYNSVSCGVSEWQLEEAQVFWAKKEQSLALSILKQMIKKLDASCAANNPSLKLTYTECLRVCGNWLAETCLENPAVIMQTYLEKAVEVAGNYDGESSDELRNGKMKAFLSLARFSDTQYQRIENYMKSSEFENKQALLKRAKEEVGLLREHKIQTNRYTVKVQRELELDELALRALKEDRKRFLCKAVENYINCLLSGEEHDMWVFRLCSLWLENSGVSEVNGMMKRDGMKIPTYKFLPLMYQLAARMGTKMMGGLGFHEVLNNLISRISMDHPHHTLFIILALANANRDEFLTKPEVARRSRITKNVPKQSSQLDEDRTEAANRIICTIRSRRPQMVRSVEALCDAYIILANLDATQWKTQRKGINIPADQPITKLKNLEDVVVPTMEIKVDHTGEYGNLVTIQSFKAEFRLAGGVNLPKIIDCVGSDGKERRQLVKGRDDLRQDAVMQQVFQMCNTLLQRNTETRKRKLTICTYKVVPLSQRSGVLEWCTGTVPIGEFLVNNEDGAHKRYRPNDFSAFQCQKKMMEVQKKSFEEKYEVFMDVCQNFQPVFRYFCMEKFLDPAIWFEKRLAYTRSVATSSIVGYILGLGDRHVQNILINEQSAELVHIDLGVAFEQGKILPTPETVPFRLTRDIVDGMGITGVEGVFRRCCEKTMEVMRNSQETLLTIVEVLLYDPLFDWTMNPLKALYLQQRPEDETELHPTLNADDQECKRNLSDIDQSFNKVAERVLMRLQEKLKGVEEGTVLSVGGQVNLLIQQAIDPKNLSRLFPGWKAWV

In the case of `O=c1cc(-c2cccc3c2Sc2ccccc2S3)oc(N2CCOCC2)c1` [KU-55933, 2-morpholin-4-yl-6-thianthren-1-yl-pyran-4-one], the animals surviving long-term ([1]; recipients of splenocytes treated ex vivo with allogeneic stimulators and KU55933, given 48 hours after BMT) is listed as “three out of four”, the “development of GVHD (time)” value ([1]; recipients of unstimulated splenocytes treated with KU55933) is listed as 30 to 40 days and the “ionizing-radiation-dependent phosphorylation of known ATM targets” value [2] is listed as “abrogation”. The “inhibition of other PI-3 kinase-like kinase family members” value [3] was “does not inhibit”, the “production of IL-2, IFN-g and IL-4 in response to alloantigen” value (alloreactive T cells) was “fail to produce these cytokines” and the “T cell proliferation versus untreated controls” value (C57BL/6 T cells [4]; 20 μM KU-55933, 48 and 72 hours after stimulation) was “significantly less proliferation”. The “effect on cell viability” value (C57BL/6 T cells [4]; 20 μM KU-55933, 24 hours, anti-CD3 and CD28) was “no effect”, the “KU-55933 concentration (as low as) that induced T cell apoptosis” value (C57BL/6 T cells [4]; [6]) was 10 µM and the “response of normal T cells exposed to anti-CD3 and anti-CD28” value (C57BL/6 T cells [4]; exposed to KU-55933) was “undergo apoptosis”. The “frequency of T cells undergoing apoptosis with increasing concentration” value (C57BL/6 T cells [4]; increasing KU-55933 concentration, anti-CD3 and CD28) was “dose dependent increase”.
For `CC(=O)N[C@@H](CS)C(=O)O` [NAC, N-acetyl cysteine], the “apoptosis induced in the presence of caffeine, effect of NAC” value (C57BL/6 T cells [5]; 2 mM NAC added, 2.5 mM caffeine, anti-CD3 and CD28, normal T cells) was “prevented”, the “apoptosis induced in the presence of KU-55933, effect of NAC” value (C57BL/6 T cells [4]; NAC added (4 mM per method), 20 μM KU-55933, anti-CD3 and CD28, normal T cells) was “prevented” and the “proliferation of Atm deficient T cells, effect of NAC” value (Atm deficient T cells) was “restored the ability of Atm deficient T cells to undergo proliferation”.
In the case of `Cn1c(=O)c2c(ncn2C)n(C)c1=O` [caffeine], the “ATM function in vitro” value (ATM; 1 mM caffeine) is given as “inhibit ATM”, the “inhibition of ATM function” value (ATM; 3 mM caffeine) is given as 50% and the “T cells remaining annexin-V negative” value (C57BL/6 T cells [5]; 2.5 mM caffeine, 48 and 72 hours after stimulation) is given as “only T cells which did not divide remained annexin-V negative”. For the same compound, the “effect on cell viability” value (C57BL/6 T cells [5]; 2.5 mM caffeine, 24 hours, anti-CD3 and CD28) was “no effect”, the “caffeine concentration (as low as) that induced T cell apoptosis” value (C57BL/6 T cells [5]; [6]) was 1 mM and the “response of normal T cells exposed to anti-CD3 and anti-CD28” value (C57BL/6 T cells [5]; exposed to caffeine) was “undergo apoptosis”. The “frequency of T cells undergoing apoptosis with increasing concentration” value (C57BL/6 T cells [5]; increasing caffeine concentration, anti-CD3 and CD28) was “dose dependent increase” and the “inhibition of ATR function” value (ATR) was 50%.

From patent publication US20080279866A1, “Induction of immunosuppression by inhibition of ATM” (The Brigham and Women's Hospital, Inc., priority 2006, published 2008)
